Measurements: PMC12164691 (Molecular Pharmacology, 2021)

How the values were obtained:
TAS2R39 [1] = molecular target: T1, TAS2R39 (Homo sapiens, UniProt P59534)
T1 sequence (P59534 1-338): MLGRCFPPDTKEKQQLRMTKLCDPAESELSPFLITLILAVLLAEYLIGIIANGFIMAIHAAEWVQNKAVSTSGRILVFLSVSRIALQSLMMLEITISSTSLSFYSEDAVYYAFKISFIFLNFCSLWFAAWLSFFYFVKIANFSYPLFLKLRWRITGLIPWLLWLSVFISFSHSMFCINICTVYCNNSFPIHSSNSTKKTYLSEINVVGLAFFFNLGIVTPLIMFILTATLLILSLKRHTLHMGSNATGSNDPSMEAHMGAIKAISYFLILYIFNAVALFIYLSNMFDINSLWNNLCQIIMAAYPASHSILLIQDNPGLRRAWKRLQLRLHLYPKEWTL

TAS2R8 = TAS2R8 (Homo sapiens, UniProt Q9NYW2)
Sequence of TAS2R8 (Q9NYW2 whole entry): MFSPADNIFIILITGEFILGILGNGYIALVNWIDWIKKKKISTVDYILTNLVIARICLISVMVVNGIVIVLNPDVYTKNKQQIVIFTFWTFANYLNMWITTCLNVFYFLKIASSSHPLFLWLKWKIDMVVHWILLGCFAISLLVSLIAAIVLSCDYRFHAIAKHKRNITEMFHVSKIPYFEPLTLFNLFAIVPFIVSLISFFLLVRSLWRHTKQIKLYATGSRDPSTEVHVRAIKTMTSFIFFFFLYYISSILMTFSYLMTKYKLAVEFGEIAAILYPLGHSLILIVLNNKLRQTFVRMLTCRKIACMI

TAS2R14 = TAS2R14 (Homo sapiens, UniProt Q9NYV8)
Sequence of TAS2R14 (Q9NYV8 whole entry): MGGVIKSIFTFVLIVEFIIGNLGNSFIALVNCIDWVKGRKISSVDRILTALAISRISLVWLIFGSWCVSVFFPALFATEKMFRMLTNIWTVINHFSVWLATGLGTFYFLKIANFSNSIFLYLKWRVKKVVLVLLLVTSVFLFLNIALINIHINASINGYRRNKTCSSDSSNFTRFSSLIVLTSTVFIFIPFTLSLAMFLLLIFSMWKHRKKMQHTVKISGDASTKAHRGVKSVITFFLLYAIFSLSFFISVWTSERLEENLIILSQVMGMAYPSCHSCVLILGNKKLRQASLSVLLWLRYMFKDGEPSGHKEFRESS

TAS2R39 [2] = molecular target: T1, TAS2R39; assay: Calcium mobilization in HEK293 cells expressing TAS2R39 and Gα16-gust44; antagonism of […] TAF (also of […] denatonium, IC50 […]); format: cell-based

SMILES | Calcium mobilization in HEK293 cells expressing TAS2R39 and Gα16-gust44; concent (TAS2R39 [1]) | Calcium mobilization in HEK293 cells expressing TAS2R8 and Gα16-gust44; concentr (TAS2R8) | Calcium mobilization in HEK293 cells expressing TAS2R14 and Gα16-gust44; concent (TAS2R14) | IC50 (TAS2R39 [2])
CC(C)OC(=O)[C@H](C)N[P@](=O)(CO[C@H](C)Cn1cnc2c(N)ncnc21)Oc1ccccc1 [TAF, tenofovir alafenamide] | TAF activates TAS2R1, TAS2R8, TAS2R14, and TAS2R39 concentration-dependently. | cells expressing TAS2R8 and TAS2R14 showed small but significant responses to TAF | cells expressing TAS2R8 and TAS2R14 showed small but significant responses to TAF | –
Cc1ccc2oc(-c3ccccc3)cc(=O)c2c1 [6-MF, 6-methylflavone] | – | – | – | 22 µM
